{"source": "patent US20050238679A1", "about": "“Taurine-containing preparations for improving the skin barrier” (Beiersdorf AG, priority 2004, published 2005)", "data": [{"assay": "interfacial tension towards water as measure of polarity of lipids", "format": "physicochemical", "conditions": "lipid/oil component against water; regarded as polar if less than 30 mN/m", "from_the_text": "Oils and fats differ from one another in their polarity, which is difficult to define. It has already been proposed to adopt the interfacial tension towards water as a measure of the polarity index of an oil or of an oily phase. Then, the lower the interfacial tension between this oily phase and water, the greater the polarity of the oily phase in question. According to the invention, the interfacial tension is regarded as one possible measure of the polarity of a given oil component.\nThe interfacial tension is the force which acts on an imaginary line one meter in length in the interface between two phases. The physical unit for this interfacial tension is conventionally calculated from the force/length relationship and is usually expressed in mN/m (millinewtons divided by meters). It has a positive sign if it endeavours to reduce the interface. In the converse case, it has a negative sign. For the purposes of the present invention, lipids are regarded as polar if their interfacial tension towards water is less than 30 mN/m.\nNonpolar oils are, for example, those which are chosen from the group of branched and unbranched hydrocarbons and hydrocarbon waxes, in particular Vaseline (petrolatum), paraffin oil, squalane and squalene, polyolefins and hydrogenated polyisobutenes. Among the polyolefins, polydecenes are the preferred substances.", "units": {"interfacial tension towards water": "mN/m"}, "values": [{"smiles": "CCCCCCCCCCCCCCCCCC(=O)OCCCCCCCC", "note": "[CETIOL ® 868, Octyl Stearate]", "interfacial tension towards water": 28.4}, {"smiles": "CCCCCCCCCCCCCCCCCC(=O)OC(C)C", "note": "[Isopropyl stearate, Isopropyl Stearate]", "interfacial tension towards water": 21.9}, {"smiles": "CCCCCCCCCCCCCC(=O)OCC(CCCCCCCC)CCCCCCCCCC", "note": "(stereo not shown) [MOD, Octyldodeceyl Myristate]", "interfacial tension towards water": 22.1}, {"smiles": "CCCCCCCCOC(=O)CCCCCCCCCCCCCCC(C)C", "note": "[PRISORINE ® 2036, Octyl Isostearate]", "interfacial tension towards water": 29.7}, {"smiles": "CCCCCCCCCCCCCCCCCCOC(=O)CCCCCC", "note": "[TEGOSOFT ® SH, Stearyl Heptanoate]", "interfacial tension towards water": 28.7}, {"smiles": "CCCCCCCC(=O)OCC(COC(=O)CCCCCCC)OC(=O)CCCCCCC", "note": "[TRIVENT ® OCG, Tricaprylin]", "interfacial tension towards water": 20.2}]}, {"assay": "stability of taurine under customary storage conditions", "format": "physicochemical", "conditions": "various pH values (5<pH<7), customary storage conditions (+6° C., −10° C., rocking test)", "from_the_text": "On account of its solubility in water, it is used in various bases such as O/W creams, W/O creams, PIT emulsions, hydrous sticks, hydrodispersions etc. […] Dry skin has a reduced skin barrier. Taurine brings about an increase in the skin moisturization of cosmetic preparations. Moisturization of dry skin brings about a strengthening of the skin barrier, which means that foreign substances can penetrate less easily through the skin into the deeper skin layers. However, taurine applied to the skin penetrates […] into the lower skin layers.", "values": [{"smiles": "NCCS(=O)(=O)O", "note": "[Taurine, 2-aminoethanesulphonic acid]", "stability": "very good stability"}]}]}
